Experimental data taken from ChEMBL document CHEMBL6074675, “4-Substituted-2-Thiazole Amides as Viral Replication Inhibitors of Alphaviruses” (J Med Chem, 2024).
Active and inactive are the calls of the source. The rule behind the calls is not given here.

What was measured:
[1] = Cytotoxicity against human NHDF cells assessed as reduction in cell viability incubated for 24 hrs by CellTiter Glo luminescence assay; assay type: toxicity, cell-based
dengue virus type 2 [2] = assay: Antiviral activity against Dengue virus 2 NGC infected in human HEK293 cells assessed as log reduction of virus titer at 10 uM measured at 3 days post-infection by focus-forming assay; assay type: functional; conditions: time 3 day
West Nile virus [3] = assay: Antiviral activity against West Nile virus NY99 infected in human HEK293 cells assessed as reduction of virus load measured at 3 days post-infection by focus-forming assay; assay type: functional; conditions: NY99, HEK293, 72 h, time 3 day
[4] = Cytotoxicity against human NHDF cells deficient of IRF3 assessed as reduction in cell viability incubated for 72 hrs by CellTiter Glo luminescence assay; assay type: toxicity, cell-based
[5] = system: Venezuelan equine encephalitis virus; assay: Antiviral activity against VEEV TC-83 infected in human NHDF cells assessed as reduction of virus titer treated with cells at 1 hr prior to infection and measured at 24 hrs post-infection by plaque assay; assay type: functional; conditions: TC-83, NHDF, time 25 hrs
[6] = Cytotoxicity against human HEK293 cells; assay type: toxicity, cell-based
[7] = Octanol/PBS buffer distribution coefficient, logD of the compound at pH 7.5 by LC-MS analysis; assay type: physicochemical
Zika virus [8] = assay: Antiviral activity against Zika virus PRABC59 infected in human HEK293 cells assessed as log reduction of virus titer at 10 uM measured at 3 days post-infection by focus-forming assay; assay type: functional; conditions: time 3 day
West Nile virus [9] = assay: Antiviral activity against West Nile virus NY99 infected in human HEK293 cells assessed as log reduction of virus titer at 10 uM measured at 3 days post-infection by focus-forming assay; assay type: functional; conditions: time 3 day
Chikungunya virus [10] = assay: Antiviral activity against Chikungunya virus 181/25 infected in human NHDF cells assessed as log reduction of virus titer at 10 uM treated with cells at 1 hr prior to infection and measured at 24 hrs post-infection by plaque assay; assay type: functional; conditions: time 25 hrs
[11] = Kinetic solubility of the compound in simulated intestinal fluid at pH 7.5 by LC-MS analysis; assay type: physicochemical; conditions: read-out: Kinetic_solubility
dengue virus type 2 [12] = assay: Antiviral activity against Dengue virus 2 NGC infected in human HEK293 cells assessed as reduction of virus load measured at 3 days post-infection by focus-forming assay; assay type: functional; conditions: HEK293, 72 h, time 3 day
[13] = system: Venezuelan equine encephalitis virus; assay: Antiviral activity against VEEV TC-83 infected in human NHDF cells assessed as log reduction of virus titer at 10 uM treated with cells at 1 hr prior to infection and measured at 24 hrs post-infection by plaque assay; assay type: functional; conditions: time 25 hrs
[14] = Half life of the compound in mouse liver microsomes in presence of NADPH by LC-MS/MS analysis; assay type: ADME, Microsome
Zika virus [15] = assay: Antiviral activity against Zika virus PRABC59 infected in human HEK293 cells assessed as reduction of virus load measured at 3 days post-infection by focus-forming assay; assay type: functional; conditions: PRABC59, HEK293, 72 h, time 3 day
[16] = Half life of the compound in human liver microsomes in presence of NADPH by LC-MS/MS analysis; assay type: ADME, Microsome
Heme oxygenase 1 = target: T1, Heme oxygenase 1 (Homo sapiens, UniProt P09601); assay: Inhibition of HO-1 (unknown origin)
T1 sequence (P09601 whole entry): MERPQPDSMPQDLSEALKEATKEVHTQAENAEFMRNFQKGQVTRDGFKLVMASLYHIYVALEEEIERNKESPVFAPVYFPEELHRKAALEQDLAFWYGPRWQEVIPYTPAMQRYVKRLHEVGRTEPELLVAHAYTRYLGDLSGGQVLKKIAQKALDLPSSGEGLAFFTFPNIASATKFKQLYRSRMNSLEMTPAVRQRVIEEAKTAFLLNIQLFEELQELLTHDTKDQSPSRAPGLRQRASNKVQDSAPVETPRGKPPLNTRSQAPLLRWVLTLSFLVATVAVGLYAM

Chikungunya virus [17] = assay: Antiviral activity against Chikungunya virus 181/25 infected in human NHDF cells assessed as inhibition of viral RNA synthesis by measuring 26S subgenomic RNA accumulation at 10 uM treated with cells for 1 hr prior to infection and measured at 12 hrs post-infection by DIG-labeled probe based Northern blot analysis; assay type: functional, organism-based; conditions: time 13.0 hrs
Chikungunya virus [18] = assay: Antiviral activity against Chikungunya virus 181/25 infected in human NHDF cells assessed as inhibition of viral translation by measuring decrease in E2 protein expression at 10 uM cells treated with compound prior to infection and measured at 12 hrs post-infection by western blot analysis; assay type: functional, organism-based
[19] = target: Epidermal growth factor receptor (Homo sapiens) (UniProt P00533); assay: Inhibition of EGFR (unknown origin) upto 10 uM relative to control
Homo sapiens [20] = species on record: Homo sapiens; assay: Inhibition of PI3K/Akt/mTOR (unknown origin) upto 10 uM relative to control
[21] = AUC in C57BL/6 mouse at 1 mg/kg, iv; assay type: ADME, organism-based; conditions: in vivo
Chikungunya virus [22] = assay: Antiviral activity against Chikungunya virus 181/25 infected in human NHDF cells assessed as inhibition of viral entry at 10 uM pretreated with virus for 2 hrs prior to infection and measured at 24 hrs post-infection by plaque assay; assay type: functional, organism-based; conditions: time 26.0 hrs
Homo sapiens [23] = species on record: Homo sapiens; assay: Inhibition of MAPK (unknown origin) upto 10 uM relative to control
[24] = Half life in C57BL/6 mouse at 40 mg/kg, ip; assay type: ADME, organism-based; conditions: in vivo
[25] = AUC in C57BL/6 mouse at 40 mg/kg, po; assay type: ADME, organism-based; conditions: in vivo
Chikungunya virus [26] = assay: Antiviral activity against Chikungunya virus 181/25 infected in C57BL/6J mouse assessed as reduction in viral load in contralateral ankle at 80 mg/kg, ip bid for 3 days infected with virus at 2 hrs after first compound treatment and measured at 12 hrs post-final treatment; assay type: functional, organism-based; conditions: time 3.0 day
Chikungunya virus [27] = assay: Antiviral activity against Chikungunya virus 181/25 infected in human NHDF cells assessed as inhibition of infectious virus production at 10 uM treated with infectious cells at 6 hrs post-infection and measured at 48 hrs post-infection following culturing on Vero cells by limiting dilution plaque assay; assay type: functional, organism-based; conditions: time 42.0 hrs
[28] = Half life in C57BL/6 mouse at 40 mg/kg, po; assay type: ADME, organism-based; conditions: in vivo
Chikungunya virus [29] = assay: Antiviral activity against Chikungunya virus 181/25 infected in C57BL/6J mouse assessed as reduction in viral dissemination to quadriceps at 80 mg/kg, ip bid for 3 days infected with virus at 2 hrs after first compound treatment and measured at 12 hrs post-final dose by RT-qPCR analysis; assay type: functional, organism-based; conditions: time 3.0 day
[30] = Bioavailability in C57BL/6 mouse at 40 mg/kg, sc; assay type: ADME, organism-based; conditions: in vivo
[31] = Oral bioavailability in C57BL/6 mouse at 40 mg/kg; assay type: ADME, organism-based; conditions: in vivo
[32] = Cmax in C57BL/6 mouse at 40 mg/kg, ip; assay type: ADME, organism-based; conditions: in vivo
Chikungunya virus [33] = assay: Antiviral activity against Chikungunya virus 181/25 infected in human NHDF cells assessed as inhibition of viral RNA synthesis by measuring 49S genomic RNA accumulation at 10 uM treated with cells for 1 hr prior to infection and measured at 12 hrs post-infection by DIG-labeled probe based Northern blot analysis; assay type: functional, organism-based; conditions: time 13.0 hrs
[34] = target: Dihydroorotate dehydrogenase (quinone), mitochondrial (Homo sapiens) (UniProt Q02127); assay: Inhibition of human DHODH
[35] = Half life in C57BL/6 mouse at 1 mg/kg, iv; assay type: ADME, organism-based; conditions: in vivo
[36] = AUC in C57BL/6 mouse at 40 mg/kg, ip; assay type: ADME, organism-based; conditions: in vivo
[37] = Cmax in C57BL/6 mouse at 40 mg/kg, sc; assay type: ADME, organism-based; conditions: in vivo
[38] = Half life in C57BL/6 mouse at 40 mg/kg, sc; assay type: ADME, organism-based; conditions: in vivo
[39] = AUC in C57BL/6 mouse at 40 mg/kg, sc; assay type: ADME, organism-based; conditions: in vivo
Chikungunya virus [40] = assay: Antiviral activity against Chikungunya virus 181/25 infected in C57BL/6J mouse assessed as reduction in viral load in ipsilateral ankle at 80 mg/kg, ip bid for 3 days infected with virus at 2 hrs after first compound treatment and measured at 12 hrs post-final treatment; assay type: functional, organism-based; conditions: time 3.0 day
Chikungunya virus [41] = assay: Antiviral activity against Chikungunya virus 181/25 infected in C57BL/6J mouse assessed as reduction in viral dissemination to spleen at 80 mg/kg, ip bid for 3 days infected with virus at 2 hrs after first compound treatment and measured at 12 hrs post-final dose by RT-qPCR analysis; assay type: functional, organism-based; conditions: time 3.0 day
Chikungunya virus [42] = assay: Antiviral activity against Chikungunya virus 181/25 infected in C57BL/6J mouse assessed as reduction in footpad swelling at 80 mg/kg, ip bid for 3 days infected with virus at 2 hrs after first compound treatment and measured at 12 hrs post-final treatment by digital caliper analysis; assay type: functional, organism-based; conditions: time 3.0 day
[43] = Bioavailability in C57BL/6 mouse at 40 mg/kg, ip; assay type: ADME, organism-based; conditions: in vivo
Homo sapiens [44] = species on record: Homo sapiens; assay: Inhibition of Numb-asociated kinase (unknown origin) upto 10 uM relative to control
Homo sapiens [45] = species on record: Homo sapiens; assay: Inhibition of CDK (unknown origin) upto 10 uM relative to control
[46] = Cmax in C57BL/6 mouse at 40 mg/kg, po; assay type: ADME, organism-based; conditions: in vivo

Dihydroorotate dehydrogenase (quinone), mitochondrial (Homo sapiens), sequence (Q02127 whole entry): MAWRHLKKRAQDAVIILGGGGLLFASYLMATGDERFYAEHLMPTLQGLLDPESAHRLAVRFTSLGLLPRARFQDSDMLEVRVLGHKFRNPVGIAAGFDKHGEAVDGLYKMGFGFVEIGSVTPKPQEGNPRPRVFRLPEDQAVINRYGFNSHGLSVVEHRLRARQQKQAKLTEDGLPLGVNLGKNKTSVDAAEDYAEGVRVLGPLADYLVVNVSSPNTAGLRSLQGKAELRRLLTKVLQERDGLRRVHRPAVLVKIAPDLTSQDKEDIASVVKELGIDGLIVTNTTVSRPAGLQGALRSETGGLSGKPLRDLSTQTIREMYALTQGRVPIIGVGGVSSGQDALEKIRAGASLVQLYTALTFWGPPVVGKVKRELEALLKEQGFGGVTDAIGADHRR
Epidermal growth factor receptor (Homo sapiens), sequence (P00533 whole entry): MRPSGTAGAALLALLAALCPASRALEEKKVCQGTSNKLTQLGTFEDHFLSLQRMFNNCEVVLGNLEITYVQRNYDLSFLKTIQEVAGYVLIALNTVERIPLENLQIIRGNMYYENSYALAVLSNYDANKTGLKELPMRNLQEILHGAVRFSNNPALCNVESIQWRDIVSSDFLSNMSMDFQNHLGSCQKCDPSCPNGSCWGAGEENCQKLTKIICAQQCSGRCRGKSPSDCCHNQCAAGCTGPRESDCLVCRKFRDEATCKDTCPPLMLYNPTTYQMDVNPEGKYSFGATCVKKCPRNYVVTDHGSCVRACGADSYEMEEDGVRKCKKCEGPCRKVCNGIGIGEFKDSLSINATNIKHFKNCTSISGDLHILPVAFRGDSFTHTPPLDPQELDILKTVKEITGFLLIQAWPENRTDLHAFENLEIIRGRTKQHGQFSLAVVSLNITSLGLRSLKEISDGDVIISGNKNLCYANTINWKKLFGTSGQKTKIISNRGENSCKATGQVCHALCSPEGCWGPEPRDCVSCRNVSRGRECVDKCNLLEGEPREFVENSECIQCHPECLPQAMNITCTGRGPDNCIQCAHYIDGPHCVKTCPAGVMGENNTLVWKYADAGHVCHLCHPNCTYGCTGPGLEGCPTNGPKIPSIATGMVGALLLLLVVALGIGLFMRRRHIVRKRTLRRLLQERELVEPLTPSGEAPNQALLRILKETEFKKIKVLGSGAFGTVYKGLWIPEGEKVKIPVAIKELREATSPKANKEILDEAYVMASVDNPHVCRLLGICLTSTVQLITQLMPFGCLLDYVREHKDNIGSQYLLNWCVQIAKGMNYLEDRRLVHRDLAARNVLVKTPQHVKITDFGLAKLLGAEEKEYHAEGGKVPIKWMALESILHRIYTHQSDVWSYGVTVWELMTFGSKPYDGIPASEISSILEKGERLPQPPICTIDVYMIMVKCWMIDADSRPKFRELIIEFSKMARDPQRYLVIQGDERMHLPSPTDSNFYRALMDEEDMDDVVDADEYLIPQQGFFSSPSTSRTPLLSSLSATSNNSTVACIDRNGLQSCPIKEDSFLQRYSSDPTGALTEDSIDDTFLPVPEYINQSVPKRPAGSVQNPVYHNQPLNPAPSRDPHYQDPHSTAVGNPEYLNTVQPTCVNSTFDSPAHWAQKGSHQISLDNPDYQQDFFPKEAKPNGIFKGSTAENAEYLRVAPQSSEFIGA

## COc1cc(Nc2cccc(-c3csc(NC(=O)c4cccnc4SC)n3)c2)ccc1C#N
[1]
  CC50 at 24 h: > 30000 nM
Dengue virus type 2 [2]
  log(activity): 3
West Nile virus [3]
  EC90: 1200 nM
[4]
  CC50 at 72 h: > 30000 nM
[5]
  EC90: 210 nM
[6]
  CC50: > 30000 nM
[7]
  logD: > 4.33
Zika virus [8]
  log(activity): 3
West Nile virus [9]
  log(activity): 2.9
Chikungunya virus [10]
  log(activity): 5.1
[11]
  solubility kinetic: < 1 µM
Dengue virus type 2 [12]
  EC90: 400 nM
[13]
  log(activity): 2
[14]
  half-life: 0.567 h
Zika virus [15]
  EC90: 500 nM
[16]
  half-life: 0.417 h

## CSc1ncccc1C(=O)Nc1nc(-c2cccc(Nc3ccc(C#N)cc3)c2)cs1
Heme oxygenase 1
  EC50: > 50000 nM
Chikungunya virus [17]
  Activity: inactive
[1]
  CC50 at 24 h: > 30000 nM
Chikungunya virus [18]
  Activity: Active
[19]
  inhibition: < 30%
Dengue virus type 2 [2]
  log(activity): 2.6
Homo sapiens [20]
  inhibition: < 30%
[21]
  AUC: 821 ng·h/mL
West Nile virus [3]
  EC90: 750 nM
[4]
  CC50 at 72 h: > 30000 nM
[5]
  EC90: 190 nM
Chikungunya virus [22]
  Activity: inactive
[6]
  CC50: > 30000 nM
Homo sapiens [23]
  inhibition: < 30%
[24]
  half-life: 3.52 h
[7]
  logD: > 4.04
Zika virus [8]
  log(activity): 3.5
[25]
  AUC: 15300 ng·h/mL
Chikungunya virus [26]
  Activity: inactive
West Nile virus [9]
  log(activity): 2.6
Chikungunya virus [10]
  log(activity): 8.7
Chikungunya virus [27]
  Activity: Active
[11]
  solubility kinetic: < 1 µM
[28]
  half-life: 2.38 h
Dengue virus type 2 [12]
  EC90: 120 nM
Chikungunya virus [29]
  Activity: Active
[30]
  bioavailability: 5%
[31]
  bioavailability: 45%
[32]
  Cmax: 2460 ng/mL
Chikungunya virus [33]
  Activity: inactive
[34]
  inhibition: Active
[35]
  half-life: 1.78 h
[36]
  AUC: 30600 ng·h/mL
[37]
  Cmax: 142 ng/mL
[38]
  half-life: 5.7 h
[39]
  AUC: 1520 ng·h/mL
Chikungunya virus [40]
  Activity: inactive
Chikungunya virus [41]
  Activity: Active
[13]
  log(activity): 5.9
Chikungunya virus [42]
  Activity: inactive
[14]
  half-life: 1.23 h
[43]
  bioavailability: 91%
Zika virus [15]
  EC90: 170 nM
Homo sapiens [44]
  inhibition: < 30%
Homo sapiens [45]
  inhibition: < 30%
[16]
  half-life: 0.383 h
[46]
  Cmax: 2100 ng/mL
